Assay results as given in patent publication US20230220331A1, “TEMPORARY TREATMENT MEDIUM, TREATMENT KIT, EMBRYOGENESIS ARREST INHIBITOR, EMBRYOGENESIS ARREST INHIBITORY METHOD, DEVELOPMENTAL ENGINEERING PRODUCT PREPARATION METHOD, TRANSPLANTATION METHOD, THERAPEUTIC METHOD, AND DEVELOPMENTAL ENGINEERING PRODUCT” (priority 2020, published 2023).

Legend:
C57BL/6J blastocysts = assay: Developmental efficiency of frozen embryo transfer (Treatment Example 18); format: cell-based, mouse; settings: C57BL/6J freeze-thawed blastocysts, 38 embryos transferred
Method: Specifically, in the blastocysts of C57BL/6J mice, a freeze-thaw manipulation was performed by using the above-mentioned temporary treatment medium by using Y-27632 or the normal medium as control. Further, an average of 20 blastocysts per recipient (MCH mouse) was transplanted into the uterus. The newborn was delivered by Caesarean section (CS), and the number of implantation marks and the number of newborns were confirmed. Weaning mice were suckled by foster parents, the number of weaning mice was confirmed, and the weaning survival rate was calculated. In addition, the embryo medium was used based on the mWM medium.

[1] = test system: frozen embryos of C57BL/6J; assay: Recovery of re-frozen and re-thawed blastocysts, cytochalasin B vs Y-27632 (Treatment Example 10); format: cell-based, mouse; settings: 10 μM in mWM; 19 embryos
Method: In this treatment example, as in the above-mentioned treatment example 9, the normal medium (hereinafter, referred to as “Y− medium” as in the treatment example 9), the temporary treatment medium to which Y-27632 is added (hereinafter, referred to as “Y+ medium” as in the treatment example 9), and a CB-added medium (hereinafter, referred to as “CB+ medium”) were used. The concentrations of CB in the CB+ medium were 5 μM and 10 μM are prepared. As the manipulation, the recovery rates when frozen embryos were thawed and developed, then re-frozen in blastocysts and re-thawed were compared.
For the treatment, 107 frozen embryos of C57BL/6J (provided from CLEA Japan, Inc.) at the 2-cell stage were used. Firstly, the frozen embryos at the 2-cell stage were thawed and blastocysts were developed as they were in a normal medium.
Then, the blastocysts were then transferred to each of the above media and placed for 30 minutes. Then, the embryos were transferred to Y− medium again and placed for 30 minutes.
Then, each embryo was frozen.
Then, the embryos were then thawed and placed in M2 medium for 10 minutes.
Then, each embryo was evenly divided and placed on the medium for 1 hour.
The embryos were observed by returning to the Y− medium again. This observation was performed immediately after thawing, 3 hours later, and 24 hours later.

[2] = test system: Early embryos of the heterologous mouse Mus caroli; assay: ES cell establishment from electroporated early embryos (Treatment Example 4); format: cell-based; settings: Mus caroli early embryos cultured in Y-27632 medium, then electroporated
Method: 1. Up to 3 hours before TAKE, Y-27632-added mWM medium (Y-27632 final concentration 10 μM, an example of the “temporary treatment medium” of this example), Y-27632-free mWM medium (an example of “normal medium” of this example) were dropped into 35 mm Petri dishes by 5 drops, respectively, to prepare drops covered with paraffin oil.
2. Two-cell stage embryos were collected from the drops or thawed, placed in Y-27632-added mWM medium, and cultured for about 30 minutes to 1 hour (temporary treatment).
3. After that, TAKE was performed.
4. After TAKE, the embryos were placed in Y-27632-added mWM medium and cultured for about 30 minutes to 1 hour (temporary treatment). Then, the embryos were placed in Y-27632-free mWM medium and cultured at 37° C. under 5% CO2 and 5% O2 conditions until transplantation.
5. Then, if necessary, the culture was continued in the Y-27632-free mWM medium to establish ES cells.
When Mus caroli ES cells were knocked out of the Tyr gene by genome editing and a part of them was analyzed, it was shown that NHEJ occurred and heterologous mouse ES cells were established.

[3] = test system: pronuclear stage embryos of F344 rat; assay: Flox rat knock-in by 2STEP electroporation with high concentration ssODN (Treatment Example 6); format: cell-based; settings: ssODN 800 ng/μL, 14 transfer pulses
Method: 1. At least 3 hours before TAKE, 5 drops of Y-27632-added KSOM AA medium (Y-27632 final concentration 10 μM, an example of the “temporary treatment medium” of this example) were placed on a 35 mm Petri dish and drops covered with paraffin oil.
2. Pronuclear stage embryos were collected, placed in Y-27632-added KSOM AA medium, and cultured for about 30 minutes to 1 hour (temporary treatment).
3. After that, the first TAKE was performed.
4. After TAKE, the embryos were placed in Y-27632-added KSOM AA medium and cultured under 37° C., 5% CO2, and 5% O2 conditions for 30 minutes and more and up to 12 hours (temporary treatment).
5. Then, they were placed in Y-27632-free KSOM AA medium (an example of the “normal medium” of this example), and cultured under 37° C., 5% CO2, and 5% O2 conditions until the second TAKE.
6. The next day, the embryos that had become two cells were separated, and about 20 to 22 hours after egg collection, they were placed in Y-27632-added KSOM AA medium again and cultured for about 30 minutes to 1 hour (temporary treatment).
7. After that, the second TAKE was performed.
8. After the second TAKE, the embryos were placed in Y-27632-added KSOM AA medium and cultured for about 30 minutes to 1 hour (temporary treatment).
9. Then, they were transferred to mR1ECM medium (an example of “normal medium” of this example). […]

[4] = test system: Wistar-Imamichi and WKY rat embryos; assay: Klotho (40 kbp) large deletion knockout rats by electroporation (Treatment Example 13); format: cell-based; settings: for large deletion (proportion of individuals) / large deletion (%): Klotho
Method: In the Wistar-Imamichi line, which are similar to the inbred line, and the inbred WKY line, when the Klotho gene (40 kbp), of which whole gene could not normally be deleted, were knocked out by electroporation, the temporarily treatment is processed as similar to Example 1 as described above. Specifically, before and after electroporation, 1 hour of temporary treatment, 24 hours of culture in the normal medium (waiting period), and 1 hour of temporary treatment were performed.

[5] = Wistar-Imamichi, HIGH CONCENTRATION
[6] = Wistar-Imamichi, 164 transferred embryos
[7] = Wistar-Imamichi, LOW CONCENTRATION

Compound: C[C@@H](N)[C@H]1CC[C@H](C(=O)Nc2ccncc2)CC1 [Y-27632, trans-4-[(1R)-1-Aminoethyl]-N-4-pyrid inylcyclohexanecarboxamide]
- Implantation mark (C57BL/6J blastocysts): 13
- Weaning (number of weaning mice) (C57BL/6J blastocysts): 10
- Weaning survival rate (C57BL/6J blastocysts): 100%
- Pups (CS) (C57BL/6J blastocysts; Caesarean section): 10
- RECOVERY RATE about 3 hours later [1]: 94%
- RECOVERY RATE about 24 hours later [1]: 89%
- RECOVERY RATE immediately after thawing [1]: 36%
- number of embryos ABOUT 3 HOURS LATER [1]: 18
- number of embryos ABOUT 24 HOURS LATER [1]: 17
- number of embryos IMMEDIATELY AFTER THAWING [1]: 7
- ES cells established [2]: at a high rate
- samples developed to blastocysts (PCR AMPLIFICATION) ([3]; F344, 2STEP, of 86 samples): 67
- Flox (proportion) ([3]; F344 blastocysts, 2STEP): 1/67
- large deletion (proportion of individuals) ([4]; WKY, high concentration, many pulses, 15 transferred embryos): 2/3
- large deletion (%) ([4]; WKY, high concentration, many pulses, listed as +Y): (66%)
- large deletion (%) ([4]; WKY, high concentration, many pulses, listed as Y): 66.6%
- KLOTHO LARGE DELETION HETERO % [4, 5]: 41.3%
- KLOTHO LARGE DELETION HOMO % [4, 5]: 23.2%
- NUMBER OF INDIVIDUALS, KLOTHO LARGE DELETION HETERO [4, 5]: 19/46
- NUMBER OF INDIVIDUALS, KLOTHO LARGE DELETION HOMO [4, 5]: 10/46
- large deletion (%) [4, 6]: (63%)
- large deletion (proportion of individuals) [4, 6]: 29/46
- KLOTHO LARGE DELETION HETERO % [4, 7]: 16.6%
- KLOTHO LARGE DELETION HOMO % [4, 7]: 0%
- NUMBER OF INDIVIDUALS, KLOTHO LARGE DELETION HETERO [4, 7]: 3/18
- NUMBER OF INDIVIDUALS, KLOTHO LARGE DELETION HOMO [4, 7]: 0/18
